Experimental findings from patent US10800791B2, “Triazole ACC inhibitors and uses thereof” (Gilead Apollo, LLC, priority 2015, dated 2020) are described below.

Experiment [1] deals with Fusarium virguliforme (Fv). Briefly: Growth inhibition assay of fungal pathogens, Fv. Type of experiment: cell-based. As to conditions: 48 h. A digest of the protocol: (§1)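 Spores diluted in 17% V8 liquid media and incubated with compound at final 50, 10, 2 ppm or 2, 0.4, 0.08 ppm (2% DMSO). OD600 plus visual ratings at 24 and 48 hours, blank-subtracted; percent growth inhibition from 48 h readings relative to 2% DMSO control.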

The test system of experiment [2] is Fusarium moniliforme (Fm). The experiment can be described thus: Growth inhibition assay of fungal pathogens, Fm. The experiment is classed as cell-based. To be noted: Fusarium verticillioides, 48 h, read-out: Concentration at 90% Inhibition Fm. A digest of the protocol:
as §1

Experiment [3] concerns C. krusei. The experiment can be described thus: Antifungal Activity Assay (broth microtiter MIC), C. krusei. The experiment is classed as cell-based, Candida krusei. As to conditions: Pichia kudriavzevii, ATCC6258, 48 h. A digest of the protocol:
(§2)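 Broth microdilution per CLSI M27-A3 in RPMI 1640+MOPS, inoculum 2.5×10^3 CFU/mL final from overnight Sabouraud dextrose agar cultures at 35° C. Compounds diluted from DMSO stock to 128 μg/mL in water. MIC read visually versus growth control at 48 h.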

For experiment [4], the system named is Septoria tritici (St). The experiment can be described thus: Growth inhibition assay of fungal pathogens, St. Type of experiment: cell-based. As to conditions: Zymoseptoria tritici, 48 h, growth inhibition at 48 hours vs 2% DMSO control. A digest of the protocol:
as §1

The subject of experiment [5] is Rhizoctonia solani (Rs). Briefly: Growth inhibition assay of fungal pathogens, Rs. Type of experiment: cell-based. As to conditions: 48 h.
In experiment [6] the target is human (hACC2) (Homo sapiens, UniProt O00763). Briefly: In vitro ACC inhibition assay (ADP-Glo), hACC2. The experiment is classed as biochemical. As to conditions: Table 2b, additional results, 5 nM ACC2, 20 μM ATP, 20 μM acetyl-CoA. The procedure: The detailed procedure is as follows. […] 10 μL ADP glo reagent was added. […] 20 μL kinase detection reagent was added.
For orientation: ADP-Glo first removes unused ATP, then detects ADP through luciferase.

Experiment [7] concerns the target fungal (fACC2) (UniProt Q00955). As to conditions: read-out: fACC2 (in vitro ACC2 Inhibition Assay, IC50); Table 2b, additional results; ADP-Glo, 5 nM ACC2, 20 μM ATP, 20 μM acetyl-CoA.
In experiment [8] the test system is Collectotrichum graminicola (Cg). The experiment can be described thus: Growth inhibition assay of fungal pathogens, Cg. The experiment is classed as cell-based. To be noted: 48 h, growth inhibition at 48 hours vs 2% DMSO control. A digest of the protocol:
as §1

Experiment [9] deals with C. albicans. The experiment can be described thus: Antifungal Activity Assay (broth microtiter MIC), C. albicans. Type of experiment: cell-based, Candida albicans. As to conditions: Candida albicans, ATCC90028, 48 h. A digest of the protocol:
as §2

For experiment [10], the system named is C. parapsilosis. Briefly: Antifungal Activity Assay (broth microtiter MIC), C. parapsilosis. To be noted: Lodderomyces parapsilosis, ATCC22019, 48 h. The experiment is classed as cell-based, Candida parapsilosis. A digest of the protocol:
as §2

Experiment [11] concerns Diplodia maydis (Dm). The experiment can be described thus: Growth inhibition assay of fungal pathogens, Dm. Type of experiment: cell-based. To be noted: Stenocarpella maydis, 48 h, growth inhibition at 48 hours vs 2% DMSO control. A digest of the protocol: as §1
For experiment [12], the system named is Phytophthora capsici (Pc). Briefly: Growth inhibition assay of fungal pathogens, Pc. The experiment is classed as cell-based. As to conditions: 48 h. A digest of the protocol:
as §1

Experiment [13] deals with Botrtyis cinerea (Bc). Briefly: Growth inhibition assay of fungal pathogens, Bc. The experiment is classed as cell-based. As to conditions: 48 h, growth inhibition at 48 hours vs 2% DMSO control. A digest of the protocol:
as §1

Setting [14] is: growth inhibition at 48 hours vs 2% DMSO control, read-out: Concentration at 90% Inhibition Fv.
Setting [15] is: Fusarium moniliforme, growth inhibition at 48 hours vs 2% DMSO control.
Where [16] appears, read: Table 3b (additional results), ATCC 6258, 3 replicates, MIC recorded at 48 h, read-out: MIC, C. krusei ATCC 6258.
[17] abbreviates: Septoria tritici, read-out: Concentration at 90% Inhibition St.
[18] abbreviates: mycelial plugs, growth inhibition at 48 hours vs 2% DMSO control, read-out: Concentration at 90% Inhibition Rs.
Setting [19] is: Collectotrichum graminicola, read-out: Concentration at 90% Inhibition Cg.
[20] abbreviates: Table 3b (additional results), ATCC 90028, 3 replicates, MIC recorded at 48 h, read-out: MIC, C. albicans ATCC 90028.
Where [21] appears, read: Table 3b (additional results), ATCC 22019, 3 replicates, MIC recorded at 48 h, read-out: MIC, C. parapsilosis ATCC 22019.
The mark [22] stands for this setting: Diplodia maydis, read-out: Concentration at 90% Inhibition Dm.
[23] abbreviates: growth inhibition at 48 hours vs 2% DMSO control, read-out: Concentration at 90% Inhibition Pc.
Where [24] appears, read: Botrtyis cinerea, read-out: Concentration at 90% Inhibition Bc.
The mark [25] stands for this setting: read-out: Concentration at 90% Inhibition Fv, Fusarium virguliforme, growth inhibition at 48 hours vs 2% DMSO control.
[26] abbreviates: read-out: MIC, C. krusei ATCC 6258, Table 3b (additional results), 3 replicates, MIC recorded at 48 h.
[27] abbreviates: read-out: Concentration at 90% Inhibition St, Septoria tritici.
Where [28] appears, read: read-out: Concentration at 90% Inhibition Rs, Rhizoctonia solani, mycelial plugs, growth inhibition at 48 hours vs 2% DMSO control.
[29] abbreviates: read-out: Concentration at 90% Inhibition Cg, Collectotrichum graminicola.
The mark [30] stands for this setting: read-out: MIC, C. albicans ATCC 90028, Table 3b (additional results), 3 replicates, MIC recorded at 48 h.
Setting [31] is: read-out: MIC, C. parapsilosis ATCC 22019, Table 3b (additional results), 3 replicates, MIC recorded at 48 h.
Where [32] appears, read: read-out: Concentration at 90% Inhibition Dm, Diplodia maydis.
Setting [33] is: read-out: Concentration at 90% Inhibition Pc, Phytophthora capsici, growth inhibition at 48 hours vs 2% DMSO control.
Setting [34] is: read-out: Concentration at 90% Inhibition Bc, Botrtyis cinerea.

In brackets after ≈: the same amount, converted by molar mass. Like-named read-outs stand apart in the source and are kept apart here.

Chain of human (hACC2) (O00763 whole entry): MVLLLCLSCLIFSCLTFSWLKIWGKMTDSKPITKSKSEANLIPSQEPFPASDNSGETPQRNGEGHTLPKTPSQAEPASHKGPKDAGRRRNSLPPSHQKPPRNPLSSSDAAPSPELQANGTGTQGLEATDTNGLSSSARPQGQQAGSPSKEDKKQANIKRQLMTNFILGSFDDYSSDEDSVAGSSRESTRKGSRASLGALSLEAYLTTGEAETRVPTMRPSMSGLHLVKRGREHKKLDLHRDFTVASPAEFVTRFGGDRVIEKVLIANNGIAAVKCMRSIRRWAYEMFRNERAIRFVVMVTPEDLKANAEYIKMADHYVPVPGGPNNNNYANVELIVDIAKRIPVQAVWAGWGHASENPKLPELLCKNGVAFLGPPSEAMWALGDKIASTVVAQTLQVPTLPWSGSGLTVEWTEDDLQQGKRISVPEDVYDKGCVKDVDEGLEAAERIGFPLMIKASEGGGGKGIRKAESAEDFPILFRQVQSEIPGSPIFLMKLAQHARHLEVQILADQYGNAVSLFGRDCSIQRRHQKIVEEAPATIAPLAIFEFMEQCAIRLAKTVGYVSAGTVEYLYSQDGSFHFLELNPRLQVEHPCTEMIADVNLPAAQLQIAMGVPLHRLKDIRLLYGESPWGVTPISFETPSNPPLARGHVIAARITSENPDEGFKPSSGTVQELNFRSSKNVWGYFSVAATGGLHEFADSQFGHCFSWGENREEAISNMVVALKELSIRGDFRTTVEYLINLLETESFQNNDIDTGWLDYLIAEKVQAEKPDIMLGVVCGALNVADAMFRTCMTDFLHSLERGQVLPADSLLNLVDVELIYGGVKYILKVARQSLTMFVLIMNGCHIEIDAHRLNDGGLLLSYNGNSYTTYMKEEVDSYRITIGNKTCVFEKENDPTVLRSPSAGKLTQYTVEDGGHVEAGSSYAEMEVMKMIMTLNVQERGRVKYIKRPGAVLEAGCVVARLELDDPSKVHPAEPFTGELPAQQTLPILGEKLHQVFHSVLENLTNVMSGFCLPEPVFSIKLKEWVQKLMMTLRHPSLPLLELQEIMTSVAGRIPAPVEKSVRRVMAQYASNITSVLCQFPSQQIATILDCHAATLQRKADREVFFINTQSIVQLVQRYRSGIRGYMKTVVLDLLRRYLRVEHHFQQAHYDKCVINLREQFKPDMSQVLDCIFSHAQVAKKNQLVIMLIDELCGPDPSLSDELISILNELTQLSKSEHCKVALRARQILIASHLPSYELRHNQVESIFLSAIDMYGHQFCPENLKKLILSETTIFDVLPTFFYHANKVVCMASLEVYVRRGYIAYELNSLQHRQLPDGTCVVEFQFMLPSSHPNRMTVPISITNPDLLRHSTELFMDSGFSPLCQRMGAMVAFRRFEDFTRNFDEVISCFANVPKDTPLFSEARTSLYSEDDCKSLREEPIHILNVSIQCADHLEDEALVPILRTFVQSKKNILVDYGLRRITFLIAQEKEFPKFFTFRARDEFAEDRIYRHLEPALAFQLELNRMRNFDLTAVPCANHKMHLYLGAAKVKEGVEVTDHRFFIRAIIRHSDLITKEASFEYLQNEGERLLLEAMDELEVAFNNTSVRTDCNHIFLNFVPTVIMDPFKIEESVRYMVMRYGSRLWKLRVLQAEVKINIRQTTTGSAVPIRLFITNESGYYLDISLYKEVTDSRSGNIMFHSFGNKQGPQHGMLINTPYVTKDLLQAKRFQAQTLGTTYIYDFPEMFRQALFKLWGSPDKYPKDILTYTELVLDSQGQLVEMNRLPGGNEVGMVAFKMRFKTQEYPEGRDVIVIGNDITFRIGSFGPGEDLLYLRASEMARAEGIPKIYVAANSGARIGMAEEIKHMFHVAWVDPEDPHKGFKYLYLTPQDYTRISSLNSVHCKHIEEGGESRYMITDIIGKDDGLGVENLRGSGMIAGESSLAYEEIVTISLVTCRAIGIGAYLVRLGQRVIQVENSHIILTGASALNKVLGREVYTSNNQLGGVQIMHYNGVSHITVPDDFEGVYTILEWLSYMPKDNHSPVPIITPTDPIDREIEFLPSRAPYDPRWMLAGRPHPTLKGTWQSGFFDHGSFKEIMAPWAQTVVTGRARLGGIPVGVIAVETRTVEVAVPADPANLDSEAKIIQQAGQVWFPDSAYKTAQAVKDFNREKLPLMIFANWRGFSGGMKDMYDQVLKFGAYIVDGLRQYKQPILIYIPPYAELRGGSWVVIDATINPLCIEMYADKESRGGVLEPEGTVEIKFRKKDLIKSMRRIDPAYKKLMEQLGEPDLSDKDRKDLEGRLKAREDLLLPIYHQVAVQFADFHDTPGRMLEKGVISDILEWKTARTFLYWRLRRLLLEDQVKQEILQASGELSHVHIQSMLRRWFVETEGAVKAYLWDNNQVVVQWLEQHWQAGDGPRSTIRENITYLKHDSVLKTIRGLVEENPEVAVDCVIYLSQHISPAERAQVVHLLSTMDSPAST
Chain of fungal (fACC2) (Q00955 whole entry): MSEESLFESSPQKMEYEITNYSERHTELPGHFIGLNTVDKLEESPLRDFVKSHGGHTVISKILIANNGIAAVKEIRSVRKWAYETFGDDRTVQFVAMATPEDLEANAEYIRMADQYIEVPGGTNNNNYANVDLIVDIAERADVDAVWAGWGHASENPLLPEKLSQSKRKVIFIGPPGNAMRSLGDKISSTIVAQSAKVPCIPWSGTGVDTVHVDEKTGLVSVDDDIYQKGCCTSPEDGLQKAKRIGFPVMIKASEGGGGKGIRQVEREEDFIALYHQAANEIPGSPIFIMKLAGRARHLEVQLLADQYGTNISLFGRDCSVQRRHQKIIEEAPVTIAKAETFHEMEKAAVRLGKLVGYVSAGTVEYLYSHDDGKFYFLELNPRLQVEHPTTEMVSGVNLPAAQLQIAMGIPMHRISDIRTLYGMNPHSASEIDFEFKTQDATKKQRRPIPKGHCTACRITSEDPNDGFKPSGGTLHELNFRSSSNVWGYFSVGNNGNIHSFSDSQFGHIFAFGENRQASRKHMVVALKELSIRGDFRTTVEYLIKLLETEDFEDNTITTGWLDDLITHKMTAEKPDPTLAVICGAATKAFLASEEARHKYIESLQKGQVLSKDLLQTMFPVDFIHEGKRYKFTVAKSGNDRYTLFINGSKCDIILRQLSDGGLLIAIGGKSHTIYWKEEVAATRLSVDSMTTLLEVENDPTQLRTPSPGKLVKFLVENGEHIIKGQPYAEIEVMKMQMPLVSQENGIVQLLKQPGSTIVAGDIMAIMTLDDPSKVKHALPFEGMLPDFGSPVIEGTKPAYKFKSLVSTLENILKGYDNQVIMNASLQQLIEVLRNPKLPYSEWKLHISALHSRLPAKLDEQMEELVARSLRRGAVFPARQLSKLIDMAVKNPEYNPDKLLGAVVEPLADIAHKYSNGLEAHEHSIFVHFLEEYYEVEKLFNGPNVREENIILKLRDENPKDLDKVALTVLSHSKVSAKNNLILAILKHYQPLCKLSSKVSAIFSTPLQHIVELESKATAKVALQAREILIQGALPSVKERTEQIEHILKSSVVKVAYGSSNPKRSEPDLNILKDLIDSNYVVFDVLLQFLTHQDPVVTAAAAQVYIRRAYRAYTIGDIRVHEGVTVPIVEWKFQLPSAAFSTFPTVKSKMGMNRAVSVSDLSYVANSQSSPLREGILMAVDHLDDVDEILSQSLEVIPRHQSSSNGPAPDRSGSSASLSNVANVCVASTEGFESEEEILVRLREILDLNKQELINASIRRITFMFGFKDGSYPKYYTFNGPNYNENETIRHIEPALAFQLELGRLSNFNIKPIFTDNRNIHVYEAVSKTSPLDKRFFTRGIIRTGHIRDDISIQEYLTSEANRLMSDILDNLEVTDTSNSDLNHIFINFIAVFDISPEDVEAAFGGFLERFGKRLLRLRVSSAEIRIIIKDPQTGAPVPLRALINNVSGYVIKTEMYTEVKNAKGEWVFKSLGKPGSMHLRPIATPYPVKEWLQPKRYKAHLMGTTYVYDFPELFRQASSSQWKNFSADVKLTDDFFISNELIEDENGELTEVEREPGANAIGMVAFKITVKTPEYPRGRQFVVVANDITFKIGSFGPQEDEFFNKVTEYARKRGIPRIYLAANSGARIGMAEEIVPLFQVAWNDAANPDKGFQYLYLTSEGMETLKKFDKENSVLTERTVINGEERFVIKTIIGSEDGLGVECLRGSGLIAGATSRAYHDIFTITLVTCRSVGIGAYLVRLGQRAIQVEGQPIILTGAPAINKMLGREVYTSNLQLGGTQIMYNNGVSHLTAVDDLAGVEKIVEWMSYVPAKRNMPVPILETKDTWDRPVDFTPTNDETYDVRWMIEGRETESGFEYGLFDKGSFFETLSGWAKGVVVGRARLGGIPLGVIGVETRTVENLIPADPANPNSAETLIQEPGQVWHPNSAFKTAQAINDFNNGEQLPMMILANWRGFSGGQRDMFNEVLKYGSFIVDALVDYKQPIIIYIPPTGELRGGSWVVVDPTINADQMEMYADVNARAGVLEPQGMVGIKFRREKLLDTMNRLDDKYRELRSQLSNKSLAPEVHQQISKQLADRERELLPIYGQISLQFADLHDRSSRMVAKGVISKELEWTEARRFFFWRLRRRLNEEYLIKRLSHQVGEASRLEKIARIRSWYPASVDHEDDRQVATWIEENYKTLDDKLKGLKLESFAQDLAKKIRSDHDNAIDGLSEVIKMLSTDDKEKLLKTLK

As to `Cc1c(-n2nccn2)sc2c1c(=O)n(C(C)(C)C(=O)NC(C)C)c(=O)n2C[C@H](OCCC#N)c1ccccc1O` [Compound I-271], the IC90 in [1] (setting [14]) is 2 µg/mL (≈ 3.54 µM); in [2] (setting [15]), 2 µg/mL (≈ 3.54 µM); in [4] (setting [17]), above 50 µg/mL; in experiment [5] (setting [18]), 10 µg/mL (≈ 17.7 µM); in experiment [8] (setting [19]) it was above 50 µg/mL; in experiment [11] (setting [22]), above 50 µg/mL. The IC90 in experiment [12] (setting [23]) was above 50 µg/mL; in experiment [13] (setting [24]), 10 µg/mL (≈ 17.7 µM). In addition, the MIC in experiment [3] (setting [16]), in experiment [9] (setting [20]) and in [10] (setting [21]) was 2.01 to 4 µg/mL (≈ 3.55 to 7.07 µM) in each case. The IC50 in experiment [6] was in the range of 5 to 10 nM; in experiment [7], 0.3 to 1 nM.

For `CC(=O)Oc1ccccc1[C@H](Cn1c(=O)n(C(C)(C)C(=O)NC(C)C)c(=O)c2c(C)c(-n3nccn3)sc21)OCCC#N` [Compound I-272], the IC90 in experiment [1] (setting [14]) was 0.4 µg/mL (≈ 0.658 µM); in [2] (setting [15]), 0.08 µg/mL (≈ 0.132 µM); in experiment [4] (setting [17]) it was above 50 µg/mL; in experiment [5] (setting [18]), 2 µg/mL (≈ 3.29 µM); in experiment [8] (setting [19]), 2 µg/mL (≈ 3.29 µM); in experiment [11] (setting [22]), 10 µg/mL (≈ 16.5 µM). Also, the values for the IC90 in experiment [12] (setting [23]) and in experiment [13] (setting [24]) were above 50 µg/mL and 2 µg/mL (≈ 3.29 µM), respectively. The MIC in experiment [3] (setting [16]), in experiment [9] (setting [20]) and in experiment [10] (setting [21]) was 1.01 to 2 µg/mL (≈ 1.66 to 3.29 µM) in each case. In addition, the results for the IC50 in [6] and in experiment [7] were 1 to 5 nM and 0.3 to 1 nM, respectively.

Consider `CCOC(=O)c1ccccc1[C@H](Cn1c(=O)n(C(C)(C)C(=O)NC(C)C)c(=O)c2c(C)c(-n3nccn3)sc21)OCCC#N` [Compound I-275], for which the IC90 in [1] (setting [25]) was 2 µg/mL (≈ 3.22 µM); in [2], 2 µg/mL (≈ 3.22 µM); in experiment [4] (setting [27]) it was above 50 µg/mL; in experiment [5] (setting [28]) it was 10 µg/mL (≈ 16.1 µM); in experiment [8] (setting [29]) it was above 50 µg/mL; in [11] (setting [32]) it was above 50 µg/mL. For the same compound, the IC90 in [12] (setting [33]) is above 50 µg/mL; in [13] (setting [34]), 10 µg/mL (≈ 16.1 µM). In addition, the MIC in experiment [3] (setting [26]), in experiment [9] (setting [30]) and in [10] (setting [31]) was 2.01 to 4 µg/mL (≈ 3.23 to 6.43 µM) throughout. Moreover, the IC50 in [6] is above 40 nM; in experiment [7], 0.3 to 1 nM.

For `CCc1ccc(F)cc1CCn1c(=O)n(C(C)(C)C(=O)NC(C)C)c(=O)c2c(C)c(-n3nccn3)sc21` [Compound I-276], the IC90 was 0.08 µg/mL (≈ 0.152 µM) in [1] (setting [25]); 0.08 µg/mL (≈ 0.152 µM) in experiment [2]; above 50 µg/mL in [4] (setting [27]); 10 µg/mL (≈ 19 µM) in experiment [5] (setting [28]); 2 µg/mL (≈ 3.8 µM) in experiment [8] (setting [29]); 2 µg/mL (≈ 3.8 µM) in experiment [11] (setting [32]). For the same compound, the IC90 in experiment [12] (setting [33]) was above 50 µg/mL; in experiment [13] (setting [34]), 2 µg/mL (≈ 3.8 µM). Further, the MIC in experiment [3] (setting [26]) was 1.01 to 2 µg/mL (≈ 1.92 to 3.8 µM); in [9] (setting [30]) it was 2.01 to 4 µg/mL (≈ 3.82 to 7.6 µM); in experiment [10] (setting [31]), 2.01 to 4 µg/mL (≈ 3.82 to 7.6 µM). Also, the values for the IC50 in experiment [6] and in experiment [7] were 5 to 10 nM and 0.3 to 1 nM, respectively.

One may read the MIC as the smallest concentration in the dilution series that meets the test's criterion for growth inhibition. The IC50 is the concentration needed to halve the response being measured.
